Results: patent publication US8282944B2, “Metal complexes incorporated within biodegradable nanoparticles and their use” (The University of Akron, priority 2007, dated 2012)

Experiments:
[1] = tested on: A375 melanoma; assay: Anti-proliferative effects on A375 melanoma at 96 hours of growth; assay type: cell-based; conditions: 0.5-25 μm, FIGS. 2 and 3
Protocol: (§1) The anti-proliferative effects of formula 23, cisplatin and carboplatin were investigated on A375 melanoma at 96 hours of growth and are shown in FIGS. 2 and 3. Percent control growth and percent standard error of the means (SEM) were conducted at various concentrations including 0.5 μm, 1.0 μm, 2.5 μm, 5.0 μm, 10 μm, 15 μm, 20 μm and 25 p.m.

[2] = tested on: HT1376 colon carcinoma; assay: Anti-proliferative effects on HT1376 colon carcinoma at 96 hours of growth; assay type: cell-based; conditions: 0.5-25 μm, FIGS. 6 and 7
Protocol: as §1, with “on HT1376 colon carcinoma” for “on A375 melanoma”, “FIGS. 6” for “FIGS. 2”, “and 7.” for “and 3.”, “25 μm.” for “25 p.m.”

[3] = tested on: ACHN renal carcinoma; assay: Anti-proliferative effects on ACHN renal carcinoma at 96 hours of growth; assay type: cell-based; conditions: 0.5-25 μm, FIGS. 4 and 5
Protocol: as §1, with “on ACHN renal carcinoma” for “on A375 melanoma”, “FIGS. 4” for “FIGS. 2”, “and 5.” for “and 3.”, “25 μm.” for “25 p.m.”

[4] = tested on: ovarian cancer cell line NuTu-19; assay: MTT test against ovarian cancer cell line NuTu-19; assay type: cell-based
Protocol: In one example, a silver(I) complex as represented in formula 23 has been tested for preliminary anticancer activity against the ovarian cancer cell line NuTu-19. Silver complex 23 was chosen because of its overall stability.
Cells were plated at 5000 cells per well in a 96-well plate. All tests were run in triplicate. Cells were allowed to incubate overnight after plating followed by the addition of a 50 μM solution of 23, cisplatin, and thiaether-RhCl3 dissolved in complete cell media. The cells were then incubated for 72 h followed by the addition of MTT dissolved in phosphate buffered saline (PBS) and incubated for another 4 h. A sodium dodecyl sulfate: 0.01M HCl (SDS) solution was then added and the cells were incubated overnight. The SDS solution is added to solubilize the blue formazan crystals that are formed by the reduction of MTT by living cells. The absorbance is then read on a microplate reader. Therefore, the higher the absorbance the more living cells present in cell colony.

[5] = tested on: rat models; assay: Toxicity in rat models via IV tail injection; assay type: in vivo
Description: In one embodiment, the R group is an alcohol. Suitable alcohols include ethanol and propanol. For formula 26, n has a value between 1 and 200.

SMILES: CC(=O)[O][Ag][CH]1N(C)C(Cl)=C(Cl)N1C [formula 23]
- percent control growth compared to cisplatin and carboplatin [1]: best control growth
- percent control growth compared to carboplatin and cisplatin [2]: comparable control growth
- percent control growth compared to carboplatin [3]: comparable control growth
- percent control growth compared to cisplatin [3]: better control growth
- cell kill (MTT absorbance, FIG. 1) ([4]; NuTu-19, 50 μM, after 72 h of incubation): kills all cells
- anticancer activity ([4]; NuTu-19, tested for a period of 72 hours, preliminary): shown anticancer activity

SMILES: OC1(O)CN2C=CN3Cc4cccc(n4)CN4C=CN(C1)[CH]4[Ag][CH]1N4C=CN1CC(O)(O)CN1C=CN(Cc5cccc(n5)C4)[CH]1[Ag][CH]32 [formula 24]
- toxicity [5]: severe toxicity
